Results reported in patent publication US20240390328A1, “PHARMACEUTICAL COMPOSITION CONTAINING AS ACTIVE INGREDIENT COMPOUND CONJUGATED TO G4 STRUCTURES OF CORONAVIRUSES FOR PREVENTION OR TREATMENT OF CORONAVIRUS INFECTIOUS DISEASES” (priority 2020, published 2024).

How the values were obtained:
Assay type in all cases: binding
[1] = system: SARS-COV-2 RNA G4, position 4162 (NsP3); test: CD thermal melting analysis, G4 No. 7; conditions: G4 No. 7, position 4162, NsP3; 15 μM RNA G4, 30 μM compound
Method: (§1) For melting, the samples were heated at 25 to 95° C. at 2° C./min with a data pitch of 0.5° C. CD melting analyses were performed with and without G4-binding compounds. The ratio of RNA: G4-binding compound was set to a molar ratio of 1:2. 15 μM RNA G4 was treated with 30 μM G4-binding compound and incubated at room temperature in a buffer comprising 10 mM Tris-HCl (pH 7.5) and 100 mM KCl for 30 minutes. Ellipticity was measured at 265 nm. Thereafter, data were normalized and plotted in OriginPro 2017 to calculate Tm values.
(§2) In addition, 15 μM RNA G4 was treated with 30 μM compound and incubated, and a CD thermal melting curve of RNA G4 (15 μM) was obtained in the presence or absence of the G4-binding compound. Furthermore, the effect of G4-binding compounds on the stability of SARS-COV-2 G4 was confirmed by measuring the difference in melting temperature (ΔTm). The results are illustrated in FIGS. 6A and 6B.

[2] = system: SARS-COV-2 RNA G4, position 2714 (NsP2 + NsP3); test: CD thermal melting analysis, G4 No. 5; conditions: G4 No. 5, position 2714, NsP2 + NsP3; 15 μM RNA G4, 30 μM compound
Method: as §1, §2

[3] = system: SARS-COV-2 RNA G4, position 22316 (Surface glycoprotein); test: CD thermal melting analysis, G4 No. 16; conditions: G4 No. 16, position 22316, Surface glycoprotein; 15 μM RNA G4, 30 μM compound
Method: as §1, §2

[4] = system: SARS-COV-2 RNA G4, position 15208 (NsP12); test: CD thermal melting analysis, G4 No. 13; conditions: G4 No. 13, position 15208, NsP12; 15 μM RNA G4, 30 μM compound
Method: as §1, §2

[5] = system: SARS-COV-2 RNA G4, position 353 (NsP1); test: CD thermal melting analysis, G4 No. 1; conditions: G4 No. 1, position 353, NsP1; 15 μM RNA G4, 30 μM compound
Method: as §1, §2

[6] = system: SARS-COV-2 RNA G4, position 8687 (NsP4); test: CD thermal melting analysis, G4 No. 9; conditions: G4 No. 9, position 8687, NsP4; 15 μM RNA G4, 30 μM compound
Method: as §1, §2

[7] = system: SARS-COV-2 RNA G4, position 25197 (Surface glycoprotein); test: CD thermal melting analysis, G4 No. 19; conditions: G4 No. 19, position 25197, Surface glycoprotein; 15 μM RNA G4, 30 μM compound
Method: as §1, §2

[8] = system: SARS-COV-2 RNA G4, position 644 (NsP1); test: CD thermal melting analysis, G4 No. 2; conditions: G4 No. 2, position 644, NsP1; 15 μM RNA G4, 30 μM compound
Method: as §1, §2

[9] = system: SARS-COV-2 RNA G4, position 14947 (NsP12); test: CD thermal melting analysis, G4 No. 12; conditions: G4 No. 12, position 14947, NsP12; 15 μM RNA G4, 30 μM compound
Method: as §1, §2

[10] = system: 25 G4s predicted for SARS-COV-2; test: CD thermal melting analysis, comparison of ΔTm over all G4s; conditions: for effect on stability of SARS-COV-2 G4 (ΔTm), in words: 15 μM RNA G4, 30 μM compound, FIGS. 6A and 6B; for number of G4s Destabilized: of the 25 SARS-COV-2 G4s
[11] = system: SARS-COV-2 RNA G4, position 24215 (Surface glycoprotein); test: CD thermal melting analysis, G4 No. 17; conditions: G4 No. 17, position 24215, Surface glycoprotein; 15 μM RNA G4, 30 μM compound
Method: as §1, §2

[12] = system: SARS-COV-2 RNA G4, position 4261 (NsP3); test: CD thermal melting analysis, G4 No. 8; conditions: G4 No. 8, position 4261, NsP3; 15 μM RNA G4, 30 μM compound
Method: as §1, §2

[13] = system: SARS-COV-2 RNA G4, position 26746 (Membrane protein); test: CD thermal melting analysis, G4 No. 21; conditions: G4 No. 21, position 26746, Membrane protein; 15 μM RNA G4, 30 μM compound
Method: as §1, §2

[14] = system: SARS-COV-2 RNA G4, position 10261 (NsP5); test: CD thermal melting analysis, G4 No. 10; conditions: G4 No. 10, position 10261, NsP5; 15 μM RNA G4, 30 μM compound
Method: as §1, §2

[15] = system: SARS-COV-2 RNA G4, position 1463 (NsP2); test: CD thermal melting analysis, G4 No. 3; conditions: G4 No. 3, position 1463, NsP2; 15 μM RNA G4, 30 μM compound
Method: as §1, §2

[16] = system: SARS-COV-2 RNA G4, position 25951 (ORF3a protein); test: CD thermal melting analysis, G4 No. 20; conditions: G4 No. 20, position 25951, ORF3a protein; 15 μM RNA G4, 30 μM compound
Method: as §1, §2

[17] = system: SARS-COV-2 RNA G4, position 24268 (Surface glycoprotein); test: CD thermal melting analysis, G4 No. 18; conditions: G4 No. 18, position 24268, Surface glycoprotein; 15 μM RNA G4, 30 μM compound
Method: as §1, §2

[18] = system: SARS-COV-2 RNA G4, position 3467 (NsP3); test: CD thermal melting analysis, G4 No. 6; conditions: G4 No. 6, position 3467, NsP3; 15 μM RNA G4, 30 μM compound
Method: as §1, §2

[19] = system: SARS-COV-2 RNA G4, position 13385 (NsP10); test: CD thermal melting analysis, G4 No. 11; conditions: G4 No. 11, position 13385, NsP10; 15 μM RNA G4, 30 μM compound
Method: as §1, §2

Row | SMILES | Tm in ° C. with compound [1] [°C] | ΔTm [1] [°C] | Tm in ° C. with compound [2] [°C] | ΔTm [2] [°C] | Tm in ° C. with compound [3] [°C] | ΔTm [3] [°C] | Tm in ° C. with compound [4] [°C] | ΔTm [4] [°C] | Tm in ° C. with compound [5] [°C] | ΔTm [5] [°C] | Tm in ° C. with compound [6] [°C] | ΔTm [6] [°C] | Tm in ° C. with compound [7] [°C] | ΔTm [7] [°C] | Tm in ° C. with compound [8] [°C] | ΔTm [8] [°C] | Tm in ° C. with compound [9] [°C] | ΔTm [9] [°C] | effect on stability of SARS-COV-2 G4 (ΔTm), in words [10] | number of G4s Destabilized [10] | also measured
1 | CN1CCC[C@H]1CCNC(=O)c1cn2c3c(c(N4CCC(c5cnccn5)C4)c(F)cc3c1=O)Oc1cc3ccccc3cc1-2 (stereo partly drawn) [CX-3543, 15-fluoro-N-[2-[(2S)-1-methylpyrrolidin-2-yl]ethyl]-18-oxo-14-(3-pyrazin-2-ylpyrrolidin-1-yl)-12-oxa-1-azapentacyclo [11.7.1.0^2,11.0^4,9.0^17,21]henicosa-2,4,6,8, 10, 13 (21), 14,16,19-nonaene-19-carboxamide] | 58.94 | 2.05 | 57.69 | −13.45 | 49.56 | 1.28 | 63.87 | 6.7 | 72.64 | 1.05 | 49.83 | 2.97 | 66.57 | −4.62 | 53.32 | 5.59 | 58.11 | 0.9 | did not show any noticeable change | 6 | Tm in ° C. with compound [11]: 57.16 °C; ΔTm [11]: 1.74 °C; Tm in ° C. with compound [12]: 63.89 °C; ΔTm [12]: 13.58 °C; Tm in ° C. with compound [13]: 59.29 °C; ΔTm [13]: −3.37 °C; Tm in ° C. with compound [14]: 50.24 °C; ΔTm [14]: 2.35 °C; Tm in ° C. with compound [15]: 66.55 °C; ΔTm [15]: 11.03 °C; Tm in ° C. with compound [16]: 53.87 °C; ΔTm [16]: 5.13 °C; Tm in ° C. with compound [17]: 40.42 °C; ΔTm [17]: −0.05 °C; Tm in ° C. with compound [18]: 63.54 °C; ΔTm [18]: −2.01 °C; Tm in ° C. with compound [19]: 52.87 °C; ΔTm [19]: 7.27 °C
2 | NCCOc1cc(C(=O)Nc2cc(OCCN)c3ccccc3n2)nc(C(=O)Nc2cc(OCCN)c3ccccc3n2)c1 [PDS, 4-(2-aminoethoxy)-N2,N6-bis(4-(2-aminoethoxy)quinolin-2-yl)pyridine-2,6-dicarboxamide] | 56.03 | −0.86 | 86.49 | 15.35 | 55.62 | 7.34 | 60.16 | 2.99 | 87.66 | 16.07 | 84.44 | 37.58 | 68.63 | −2.56 | 70.59 | 22.86 | 82.16 | 24.95 | significantly stabilized most G4s | 2 | proportion of the G4s with ΔTm>20° C. ([10]; among the 25 G4s predicted for SARS-COV-2): 36%; Tm in ° C. with compound [11]: 62.93 °C; ΔTm [11]: 7.51 °C; Tm in ° C. with compound [12]: 79.18 °C; ΔTm [12]: 28.87 °C; Tm in ° C. with compound [13]: 68.77 °C; ΔTm [13]: 6.11 °C; Tm in ° C. with compound [14]: 60.66 °C; ΔTm [14]: 12.77 °C; Tm in ° C. with compound [15]: 60.04 °C; ΔTm [15]: 4.52 °C; Tm in ° C. with compound [16]: 92.26 °C; ΔTm [16]: 43.52 °C; Tm in ° C. with compound [17]: 46.11 °C; ΔTm [17]: 5.64 °C; Tm in ° C. with compound [18]: 88.65 °C; ΔTm [18]: 23.1 °C; Tm in ° C. with compound [19]: 63.07 °C; ΔTm [19]: 17.47 °C
